Data published in ChEMBL document CHEMBL5523710 (Eur J Med Chem, 2024).
The source made the active and inactive calls. The calls are words filed in the database; no cut-off is given here.

Assays:
Jurkat [1] = test: Cytotoxicity against human Jurkat cells measured for 72 hrs by celltiter-glo assay
HL-60 [2] = test: Cytotoxicity against human HL-60 cells measured for 72 hrs by celltiter-glo assay; details: HL-60, 72 h
HAL-01 [3] = test: Cytotoxicity against human HAL-01 cells measured for 72 hrs by celltiter-glo assay; details: HAL-01, 72 h
MOLM-13 = test: Synergistic cytotoxicity against human MOLM-13 cells measured after 72 hrs in presence of decitabine by celltiter-glo assay; assay type: functional, cell-based
[4] = molecular target: Histone deacetylase 3/Nuclear receptor corepressor 2 (HDAC3/NCoR2) (Homo sapiens, UniProt O15379); test: Inhibition of C-terminal his-tagged human recombinant HDAC3 (1 to 428 residues)/N-terminal GST-tagged human recombinant NCOR2 (395 to 489 residues) expressed in Sf9 insect cells using ZMAL-(Z-Lys(Ac)-AMC as substrate measured for 90 mins by microplate reader analysis
HL-60 [5] = test: Induction of apoptosis in human HL-60 cells assessed as increase in dead cells at 1 to 5 uM measured for 48 hrs by Annexin/PI staining based analysis; assay type: functional, cell-based; details: dose 1-5 µM
HL-60 [6] = test: Induction of apoptosis in human HL-60 cells assessed as increase in late apoptotic cells at 1 to 5 uM measured for 48 hrs by Annexin/PI staining based analysis; assay type: functional, cell-based; details: dose 1-5 µM
HL-60 [7] = test: Induction of apoptosis in human HL-60 cells assessed as increase in early apoptotic cells at 1 to 5 uM measured for 48 hrs by Annexin/PI staining based analysis; assay type: functional, cell-based; details: dose 1-5 µM
HL-60 [8] = test: Induction of apoptosis in human HL-60 cells assessed as viable cells at 1 to 5 uM measured for 48 hrs by Annexin/PI staining based analysis; assay type: functional; details: dose 1-5 µM
HAL-01 [9] = test: Synergistic cytotoxicity against human HAL-01 cells measured after 72 hrs in presence of decitabine by celltiter-glo assay; assay type: functional, cell-based
Histone deacetylase 2 = Histone deacetylase 2 (Homo sapiens, UniProt Q92769); test: biochemical; assay type: cell-based, Sf9
Description: Inhibition of C-terminal FLAG-tagged human recombinant HDAC2 (1 to 488 residues) expressed in Sf9 insect cells using ZMAL-(Z-Lys(Ac)-AMC as substrate measured for 90 mins by microplate reader analysis

HL-60 [10] = details: Homo sapiens, dose 24.0 nM, time 24.0 hrs
HL-60 [11] = details: Homo sapiens, dose 24.0 nM, time 24.0 hrs; remark: listed apart in the source
Histone deacetylase 1 = Histone deacetylase 1 (Homo sapiens, UniProt Q13547); test: Inhibition of C-terminal his/FLAG-tagged full length human recombinant HDAC1 (1 to 482 residues) expressed in Sf9 insect cells using ZMAL-(Z-Lys(Ac)-AMC as substrate measured for 90 mins by microplate reader analysis
Jurkat [12] = test: Synergistic cytotoxicity against human Jurkat cells measured after 72 hrs in presence of decitabine by celltiter-glo assay; assay type: functional, cell-based

Sequence of Histone deacetylase 2 (Q92769 whole entry): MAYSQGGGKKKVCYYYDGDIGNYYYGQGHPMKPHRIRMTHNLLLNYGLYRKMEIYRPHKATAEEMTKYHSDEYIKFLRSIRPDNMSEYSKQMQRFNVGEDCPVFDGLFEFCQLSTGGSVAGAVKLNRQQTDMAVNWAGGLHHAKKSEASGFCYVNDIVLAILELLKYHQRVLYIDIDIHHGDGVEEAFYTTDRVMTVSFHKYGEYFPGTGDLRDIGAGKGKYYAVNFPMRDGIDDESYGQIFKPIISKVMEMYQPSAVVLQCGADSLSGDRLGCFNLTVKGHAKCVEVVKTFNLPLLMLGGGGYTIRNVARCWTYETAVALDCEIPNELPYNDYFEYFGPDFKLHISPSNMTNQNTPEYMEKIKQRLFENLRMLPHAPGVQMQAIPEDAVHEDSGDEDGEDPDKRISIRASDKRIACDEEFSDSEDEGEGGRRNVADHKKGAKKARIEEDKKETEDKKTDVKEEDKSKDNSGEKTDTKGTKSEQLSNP
Sequence of Histone deacetylase 3/Nuclear receptor corepressor 2 (HDAC3/NCoR2) (O15379 whole entry, the tested form may be a part): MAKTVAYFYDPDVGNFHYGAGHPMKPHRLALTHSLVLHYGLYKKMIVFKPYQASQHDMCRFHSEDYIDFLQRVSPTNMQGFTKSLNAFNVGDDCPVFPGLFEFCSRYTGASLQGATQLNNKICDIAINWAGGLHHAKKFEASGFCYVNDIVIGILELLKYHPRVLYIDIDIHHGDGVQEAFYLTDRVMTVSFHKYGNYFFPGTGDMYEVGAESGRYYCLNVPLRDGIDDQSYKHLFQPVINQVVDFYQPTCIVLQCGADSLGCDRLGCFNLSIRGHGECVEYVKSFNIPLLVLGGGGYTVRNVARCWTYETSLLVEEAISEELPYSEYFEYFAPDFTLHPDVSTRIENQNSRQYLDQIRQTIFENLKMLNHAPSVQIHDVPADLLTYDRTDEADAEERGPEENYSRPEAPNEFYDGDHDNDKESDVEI
Sequence of Histone deacetylase 3/Nuclear receptor corepressor 2 (HDAC3/NCoR2) (Q9Y618 whole entry, further chain, the tested form may be a part): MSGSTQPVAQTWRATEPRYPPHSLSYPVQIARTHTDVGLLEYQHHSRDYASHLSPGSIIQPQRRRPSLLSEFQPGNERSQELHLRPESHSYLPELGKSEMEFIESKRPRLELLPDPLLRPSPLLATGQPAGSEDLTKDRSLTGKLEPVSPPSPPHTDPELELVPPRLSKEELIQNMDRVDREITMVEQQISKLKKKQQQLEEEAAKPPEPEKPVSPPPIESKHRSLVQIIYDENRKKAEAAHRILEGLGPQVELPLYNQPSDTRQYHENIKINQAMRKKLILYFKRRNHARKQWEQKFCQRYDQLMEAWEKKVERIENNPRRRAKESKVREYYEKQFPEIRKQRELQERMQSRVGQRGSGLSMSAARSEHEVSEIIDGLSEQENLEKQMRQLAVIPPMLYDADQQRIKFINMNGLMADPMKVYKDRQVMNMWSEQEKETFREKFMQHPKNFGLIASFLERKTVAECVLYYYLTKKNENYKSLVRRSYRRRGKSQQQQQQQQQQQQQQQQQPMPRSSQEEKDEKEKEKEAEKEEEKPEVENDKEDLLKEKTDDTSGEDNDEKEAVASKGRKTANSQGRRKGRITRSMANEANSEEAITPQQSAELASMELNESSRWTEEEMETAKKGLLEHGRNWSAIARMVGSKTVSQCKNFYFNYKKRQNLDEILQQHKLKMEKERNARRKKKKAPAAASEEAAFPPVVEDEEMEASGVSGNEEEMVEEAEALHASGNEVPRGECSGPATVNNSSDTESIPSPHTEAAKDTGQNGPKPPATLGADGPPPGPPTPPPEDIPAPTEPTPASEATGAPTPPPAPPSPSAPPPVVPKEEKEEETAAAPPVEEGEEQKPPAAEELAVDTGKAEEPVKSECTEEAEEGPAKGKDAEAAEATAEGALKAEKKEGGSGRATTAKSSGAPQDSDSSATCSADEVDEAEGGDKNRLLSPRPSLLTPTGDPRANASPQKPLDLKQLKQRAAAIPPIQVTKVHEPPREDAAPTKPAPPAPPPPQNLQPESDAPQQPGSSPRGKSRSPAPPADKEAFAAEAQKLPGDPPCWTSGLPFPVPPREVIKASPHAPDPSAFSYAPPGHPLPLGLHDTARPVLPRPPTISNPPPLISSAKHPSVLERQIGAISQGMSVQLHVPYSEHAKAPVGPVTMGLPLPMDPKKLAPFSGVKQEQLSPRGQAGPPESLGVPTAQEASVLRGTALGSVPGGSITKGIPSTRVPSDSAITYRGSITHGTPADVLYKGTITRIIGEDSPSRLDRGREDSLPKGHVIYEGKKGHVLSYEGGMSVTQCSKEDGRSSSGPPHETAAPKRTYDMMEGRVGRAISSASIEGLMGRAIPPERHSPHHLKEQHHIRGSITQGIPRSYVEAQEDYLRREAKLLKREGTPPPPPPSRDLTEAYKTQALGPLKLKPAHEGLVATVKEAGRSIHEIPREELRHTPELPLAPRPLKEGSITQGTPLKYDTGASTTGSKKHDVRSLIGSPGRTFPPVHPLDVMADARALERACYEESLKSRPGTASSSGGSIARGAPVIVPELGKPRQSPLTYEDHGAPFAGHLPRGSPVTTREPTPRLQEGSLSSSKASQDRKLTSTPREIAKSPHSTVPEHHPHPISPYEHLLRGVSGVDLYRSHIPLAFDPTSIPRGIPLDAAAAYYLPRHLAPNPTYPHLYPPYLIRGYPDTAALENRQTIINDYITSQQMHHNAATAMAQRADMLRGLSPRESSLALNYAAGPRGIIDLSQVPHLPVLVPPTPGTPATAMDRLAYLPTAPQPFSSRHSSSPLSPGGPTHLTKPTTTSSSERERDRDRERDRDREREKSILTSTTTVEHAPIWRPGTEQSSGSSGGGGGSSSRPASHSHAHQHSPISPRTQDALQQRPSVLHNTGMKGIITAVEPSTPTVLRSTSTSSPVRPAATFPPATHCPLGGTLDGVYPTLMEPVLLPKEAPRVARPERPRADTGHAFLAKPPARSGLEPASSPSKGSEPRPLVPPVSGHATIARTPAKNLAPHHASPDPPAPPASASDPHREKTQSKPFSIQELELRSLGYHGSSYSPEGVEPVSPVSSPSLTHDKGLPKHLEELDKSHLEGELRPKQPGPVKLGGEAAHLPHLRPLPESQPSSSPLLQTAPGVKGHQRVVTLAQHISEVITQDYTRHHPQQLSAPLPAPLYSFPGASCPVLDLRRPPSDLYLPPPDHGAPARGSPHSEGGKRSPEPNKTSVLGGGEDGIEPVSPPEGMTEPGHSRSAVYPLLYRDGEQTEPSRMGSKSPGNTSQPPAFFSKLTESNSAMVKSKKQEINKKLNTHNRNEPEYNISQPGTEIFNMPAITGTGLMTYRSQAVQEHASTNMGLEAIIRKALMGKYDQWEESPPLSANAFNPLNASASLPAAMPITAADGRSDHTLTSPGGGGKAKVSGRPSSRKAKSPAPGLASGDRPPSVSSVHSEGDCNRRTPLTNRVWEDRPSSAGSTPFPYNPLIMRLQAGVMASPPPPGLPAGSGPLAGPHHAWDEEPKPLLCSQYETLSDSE
Sequence of Histone deacetylase 1 (Q13547 whole entry, the tested form may be a part): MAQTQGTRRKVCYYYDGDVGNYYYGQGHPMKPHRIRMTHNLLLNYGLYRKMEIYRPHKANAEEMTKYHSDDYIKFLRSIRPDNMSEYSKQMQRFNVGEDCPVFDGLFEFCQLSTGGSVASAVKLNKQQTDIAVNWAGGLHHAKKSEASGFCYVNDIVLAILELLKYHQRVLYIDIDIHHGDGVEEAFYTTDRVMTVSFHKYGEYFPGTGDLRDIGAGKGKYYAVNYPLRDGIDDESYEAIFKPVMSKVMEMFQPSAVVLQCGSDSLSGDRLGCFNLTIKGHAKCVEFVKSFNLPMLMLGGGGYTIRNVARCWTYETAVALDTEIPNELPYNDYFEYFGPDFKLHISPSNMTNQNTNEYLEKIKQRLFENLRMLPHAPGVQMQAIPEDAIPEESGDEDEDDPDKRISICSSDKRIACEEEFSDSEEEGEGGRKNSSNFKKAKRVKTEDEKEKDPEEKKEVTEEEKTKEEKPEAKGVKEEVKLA

| Compound | IC50 (Jurkat [1]) [nM] | IC50 (HL-60 [2]) [nM] | IC50 (HAL-01 [3]) [nM] | other results |
| --- | --- | --- | --- | --- |
| O=C(CN(C(=O)Cc1ccc(C(=O)NO)cc1)c1ccccc1)NC1CCCCC1 | 2540 | 1830 | 2020 |  |
| Cc1ccc(N(CC(=O)NC2CCCCC2)C(=O)Cc2ccc(C(=O)NO)cc2)cc1 | 410 | 360 | 230 | Activity (MOLM-13): Active; IC50 [4]: 42 nM; Activity (HL-60 [5]): Active; Activity (HL-60 [6]): Active; Activity (HL-60 [7]): Active; Activity (HL-60 [8]): 50%; Activity (HAL-01 [9]): Active; IC50 (Histone deacetylase 2): 112 nM; inhibition (HL-60 [10]): Active; inhibition (HL-60 [11]): 2.67% |
| Cc1cccc(N(CC(=O)NC2CCCCC2)C(=O)Cc2ccc(C(=O)NO)cc2)c1 | 2590 | 1750 | 1890 |  |
| CC(C)(C)NC(=O)CN(C(=O)Cc1ccc(C(=O)NO)cc1)c1ccccc1 | 8310 | 5990 | 4910 |  |
| O=C(CN(C(=O)Cc1ccc(C(=O)NO)cc1F)c1ccccc1)NC1CCCCC1 | 2420 | 1340 | 2080 |  |
| O=C(CN(C(=O)Cc1ccc(C(=O)NO)cc1)c1ccccc1)NCc1ccccc1 | 2290 | 2310 | 2150 | IC50 (Histone deacetylase 1): 283 nM |
| Cc1ccccc1N(CC(=O)NC1CCCCC1)C(=O)Cc1ccc(C(=O)NO)cc1 | 2520 | 2310 | 1510 |  |
| CCCCNC(=O)CN(C(=O)Cc1ccc(C(=O)NO)cc1)c1ccccc1 | 4030 | 2680 | 3120 |  |
| Cc1ccccc1N(CC(=O)NC1CCCCC1)C(=O)Cc1ccc(C(=O)NO)cc1F | 3080 | 2040 | 2320 | IC50 [4]: 520 nM; Activity (Jurkat [12]): inactive; Activity (HAL-01 [9]): inactive; IC50 (Histone deacetylase 2): 787 nM |
| CCc1ccccc1N(CC(=O)NC1CCCCC1)C(=O)Cc1ccc(C(=O)NO)cc1F | 3210 | 1510 | 1440 |  |
| O=C(CN(C(=O)Cc1ccc(C(=O)NO)cc1F)c1ccccc1C(F)(F)F)NC1CCCCC1 | 2280 | 1610 | 1790 |  |
| O=C(CN(C(=O)Cc1ccc(C(=O)NO)cc1)c1ccccc1C(F)(F)F)NC1CCCCC1 | 4580 | 2090 | 3030 |  |
| CCc1ccccc1N(CC(=O)NC1CCCCC1)C(=O)Cc1ccc(C(=O)NO)cc1 | 2280 | 1340 | 1430 |  |
